Source: patent US20230219898A1, “COMPOUNDS AND METHODS FOR BLOCKING APOPTOSIS AND INDUCING AUTOPHAGY” (President and Fellows of Harvard College, priority 2020, published 2023)
Where two headings read alike, the source gives them in different places.

Columns and labels:
H4-GFP-LC3 cells = assay: Autophagy induction, GFP-LC3 puncta and LC3II immunoblotting; type: cell-based; conditions: 10 μM, 6 h (zVAD.fmk 20 μM)
Procedure: Mean ±s.e.m. (n=5). One-way ANOVA, post hoc Dunnett's test.
Autophagy was determined by LC3II levels using immunoblotting. SE=shorter exposure, LE=longer exposure.
Autophagy was measured by LC3II induction and p62 reduction by immunoblotting. The levels of LC3II in cells treated with both Apt-1 and NH4Cl, the latter of which inhibits lysosome, were higher than that treated with either Apt-1 or NH4Cl alone. Thus, ICCB-19/Apt-1, but not ICCB-19i, induce autophagic flux. Mean ±s.e.m. from technical triplicates (n=3), representative of 3 independent experiments. Two-tailed t-test. **P=0.0037.
Levels of LC3II determined by immunoblotting.
Cells were seeded at 2.5×10^4 cells per well on poly-L-lysine coated glass cover slips and transfected as described. Cells were fixed in 4% paraformaldehyde, followed by permeabilization with 0.1% Triton X-100. Nuclei were stained using DAPI (Sigma). Cells expressing GFP or RFP-fusion proteins were imaged with an Olympus Fluoview FV1000 confocal microscope (Olympus) using a 40×objective. For GFP-LC3 and DsRed-FYVE puncta quantification, the average spot intensity in 1000 cells from each indicated sample was determined. Images were processed using ImageJ and Photoshop CC. Concentration of compounds used to induce or block autophagy: 10 μM (Apt-1, ICCB-19, ICCB-19i or Spautin-1), for 6 h or as indicated.

[1] = tested on: Beclin 1/Vps34 kinase complex; assay: Vps34 lipid kinase assay on Beclin 1/Vps34 complex from treated HEK293T cells; type: cell-based; conditions: 10 μM, 6 h
Procedure: FIG. 6j Beclin 1/Vps34 kinase complex isolated from Flag-Beclin 1 transfected HEK293T cells treated with ICCB-19, Apt-1, or ICCB-19i (10 μM) for 6 h. PI3P kinase activity was measured by in vitro lipid kinase assay using ADP-Glo Kinase Assay Kit. Wortmannin (10 μM) was used as a control to inhibit Vps34 kinase activity. Mean±s.d. from technical quadruplicates (n=4), representative of 3 independent experiments. One-way ANOVA, post hoc Dunnett's tests. ***P=0.0003; ***P<0.001 (left to right).
WT mice (n=10, male, 8 weeks of age) were injected intravenously via the tail vein with mTNFα (9.5 μg/mouse) after an intraperitoneal injection of Apt-1 (20 mg/kg) 30 min before. Control mice (n=9) received an equal amount of vehicle 30 min before mTNFα challenge. Kaplan Meier survival curve was determined. 25. Vps34 lipid kinase assay HEK293T cells were transfected with Flag-Beclin 1 for 18 h and then treated with ICCB-19, ICCB-19i, Apt-1 (10 μM) for another 6 h. Flag-Beclin 1 was immunoprecipitated by anti-Flag to isolate Beclin 1/Vps34 complex. Immunoprecipitated beads were added with sonicated phosphatidylinositol (1 μl of 5 mg) and ATP (1 μl of 10 mM) in 30 μl reaction buffer (40 mM Tris (pH 7.5), 20 mM MgCl2, 1 mg/ml BSA) for 30 min at room temperature. […] The conversion of ATP into ADP levels was measured by an ADP-Glo Kinase Assay Kit (Promega) according to the manufacturer's instructions.

[2] = tested on: cleaved caspase-3 in Jurkat cells; assay: Cleaved caspase-3 immunoblot in Velcade-treated cells; type: cell-based, human; conditions: FIG. 9a, 9b; Jurkat and SH-SY5Y cells, 10 μM, 12 h and 24 h
Procedure: The levels of cleaved caspase-3 were determined by immunoblotting.
Specifically, wild-type MEF cells were pretreated for 1 h with 10 uM of the specified compounds, followed by 2 h treatment with 0.5 uM 5z-7-oxozeaenol and 1 ng/mL TNFα. Cell lysates were prepared and immunoblotted for cleaved-caspase 3 (CC3). Wild-type Jurkat cells were also pretreated for 1 h with 10 uM of the specified compounds, followed by 12 h treatment with 50 nM Velcade. Cell lysates were prepared and immunoblotted for cleaved-caspase 3 (CC3).

Murine RGC5(661W) cells = assay: RIPK1-dependent apoptosis (RDA) of RGC5 cells induced by TNFα plus 5Z-7-Oxozeaenol; type: cell-based; conditions: Mus musculus, 21 hours
Procedure: Murine RGC5(661W) cells were seeded in 96-well plates (4000 cells per well). Different concentrations of the compounds were added one hour prior to TNFα treatment, followed by the addition of 0.5 ng/ml TNFα plus 0.5 μM 5Z-7-Oxozeaenol to induce RIPK1-dependent apoptosis (RDA). After incubation for 21 hours, cell viability was measured by CellTiter-Glo Luminescent Cell Viability Assay.

TRADD-N = target: T1, TRADD-N (Homo sapiens, UniProt Q15628); assay: BIAcore SPR binding to TRADD-N; conditions: 25C, steady-state affinity
T1 construct: expression constructs encoding Flag-TRADD-N(1-179) and HA-TRADD-C(180-312); His (N); made in house
T1 sequence (Q15628 1-179): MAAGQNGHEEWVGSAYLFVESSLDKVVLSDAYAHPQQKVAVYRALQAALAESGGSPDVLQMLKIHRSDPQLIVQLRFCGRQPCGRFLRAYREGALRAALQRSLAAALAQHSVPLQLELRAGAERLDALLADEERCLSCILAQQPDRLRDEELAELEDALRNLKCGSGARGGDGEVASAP
Procedure: A series of concentrations of ICCB-19 (ranging from 0.3125 to 10 μM) was used to measure the binding kinetics, with TRADD-N immobilized on the CM5 chip.
The binding affinity between ICCB-19/Apt-1 and TRADD-N was analyzed at 25C on a BIAcore T200 machine with CM5 chips (GE Healthcare). PBS-P buffer (GE Healthcare) was used for all measurements. For surface plasmon resonance (SPR) measurements, Flag-tagged TRADD-N protein was purified from HEK293T cells by anti-Flag affinity gel and eluted by 3×Flag peptide. The protein was further purified by size exclusion chromatograph on a Superdex 75 column (GE Healthcare) in a buffer containing 20 mM imidazole (pH 6.6), 200 mM NaCl, 20 mM DTT. The protein was dialyzed into PBS and diluted to a final concentration of 40 μg/ml in NaOAc buffer (pH 4.5) before immobilization on CM5 chip. ˜5000 response units of protein were immobilized on the chip with a running buffer composed of PBS-P. Reference was used to normalize the response unit (RU) values of protein. A series of compound concentrations ranging from 0.3125 to 10 μM was tested at […] flow rate. The contact time is 100 s and dissociation time is 120 s. When the data collection was finished in each cycle, the sensor surface was regenerated with PBS-P buffer. DMSO solvent correction was performed following the BIAcore T200 Guide.

[3] = Table 3, 0.5 ng/ml TNFα plus 0.5 μM 5Z-7-Oxozeaenol, read-out: RGC5 T/5z7 IC50/μM

IC50 (Murine RGC5(661W) cells; Table 2, 0.5 ng/ml TNFα plus 0.5 μM 5Z-7-Oxozeaenol, read-out: RGC5 T/5z7 IC50) [µM]	Structure (SMILES)	induction of autophagy (H4-GFP-LC3 cells)	Vps34 lipid kinase activity [1]	cleavage of caspase-3 downstream of Velcade-induced proteasomal stress [2]	IC50 (Murine RGC5(661W) cells; [3]) [µM]	Kd (TRADD-N) [nM]
	CN1CCN=C1SC(C(=O)NC1CCCCCC1)c1ccccc1 (centres unmarked) [Compound 30]	effectively induced autophagy	increased Vps34 lipid kinase activity	blocked	1.28	2170
0.18	O=C(CSC1=NCCN1)NC1CCCCCC1 [ICCB-19]	effectively induced autophagy	increased Vps34 lipid kinase activity	blocked	2.01	2300
